From US20090253157A1, “METHOD OF DIRECTED DIFFERENTIATION OF PORCINE EMBRYONIC STEM CELLS AND USING THE SAID CELLS IN DRUG SCREENING” (Livestock Research Institute, Council of Agriculture, …, priority 2008, published 2009)
Where “and” joins values, the source holds several entries; their conditions need not be identical. Identical values can stand only once. Marks after values point to notes of the source that are not given here.

Tested on: pES cells of the M215-3 strain
Test: Directed neural differentiation of pES cells (two-stage induction), immunocytochemical staining for neural biomarkers
Type: cell-based, porcine
Procedure: The pES cells of the M215-3 strain derived from the pre-implantation blastocysts of Taiwan Livestock Research Institute Black Pig No. 1 (a topcrossing breed established from Taoyuan and Duroc pigs) were maintained in ES-cell culture medium (ESM) consisting of Dulbecco's modified eagle medium (DMEM, high glucose and no pyruvate, Invitrogen, Grand Island, N.Y., USA) supplemented with 1 mM L-glutamine (Sigma-Aldrich, St. Louis, Mo., USA), 0.1 mM β-2-mercaptoethanol (Sigma-Aldrich), […] MEM non-essential amino acids (Sigma-Aldrich), 0.03 mM adenosine (Sigma-Aldrich), 0.03 mM guanosine (Sigma-Aldrich), 0.03 mM cytidine (Sigma-Aldrich), 0.03 mM uridine (Sigma-Aldrich), 0.01 mM thymidine (Sigma-Aldrich), antibiotics (50 units/ml penicillin G and 50 μg/ml streptomycin sulfate, Invitrogen) and 16% fetal bovine serum (FBS, Invitrogen) as described previously (Chen et al., 1991, J. Chin. Soc. Anim. Sci. 20: 326-339). Briefly, the pluripotent pES cells were propagated on a feeder layer of mitomycin C (Sigma-Aldrich) inactivated STO cells (mouse embryonic fibroblasts, CRL-1503, USA) in gelatin-coated Multidish 4 Wells® (Nunc 176740, Roskilde, Denmark) in ESM at 39° C. with an atmosphere of 5% CO2 in air. For the maintenance of undifferentiation, pES colonies were regulatory subcultured with 0.25% trypsin-0.02 mM EDTA (Invitrogen) and re-plated onto fresh STO feeder layers every 5 to 7 days.
Confluent pES cells were trypsinized and subjected to a two-stage in vitro induction protocol for neural differentiation. They were firstly taken into a suspension culture in an Easy Flask® (NUNC 169900, Roskilde, Denmark) for a 12-day period of neural induction. Neural induction is initiated by plating undifferentiated pES cells as single-cell suspension at a number of 1×10^5 cells totally in ESM medium withdrawing FBS and containing 1 μM retinoic acid (RA, Sigma-Aldrich), 200 ng/ml sonic hedgehog (SHH, R&D systems, Minneapolis, Minn., USA) and 100 ng/ml fibroblast growth factor (FGF, Sigma-Aldrich) as described by Barberi et al. (Nat. Biotechnol. 2003. 21: 1200-1207). Five combined treatments of neurogenic stimulators for neural induction were applied: (1) RA, (2) RA+SHH, (3) RA+FGF, (4) SHH+FGF, (5) RA+SHH+FGF. After 12 days of induction, the pES cell-derived neural cells were plated onto gelatin-coated 4-well dishes in high-density (2×10^4 cells/ml) or low-density (5×10^3 cells/ml). These cells were then cultured in DMEM/F12 medium (Sigma-Aldrich) supplemented with 10% FBS, 20 ng/ml human recombinant epidermal growth factor (hrEGF, Invitrogen), 20 ng/ml human recombinant basic fibroblast growth factor (hrbFGF, Invitrogen), and 1:100 N2 (Invitrogen), and allowed for the propagation of neural precursor cells (Pan et al., 2005 Biochem. Biophys. Res. Commun. 327: 548-556). After plating onto the 4-well dish, the induced pES cells were treated with trypsin/EDTA and collected at days 2, 4, 6, 8, 10, and 12, respectively, to analyze the neural-related development by immunocytochemical staining.
Cells for immunocytochemical analysis were fixed in 10% formalin at room temperature for 30 minutes. The cells were washed with phosphate buffered saline (PBS, Sigma-Aldrich), then incubated with 0.3% Triton X-100 (Sigma-Aldrich) for 10 minutes, 3% H2O2 (Sigma-Aldrich) for 5 minutes and incubated in blocking buffer (5% FBS) at room temperature for 2 hours. After being washed with PBS, the cells were incubated overnight with appropriate dilution of primary antibody, or combination of antibodies at 4° C. (Li et al., 2005 Nat. Biotechnol. 2005. 23: 215-221). Subsequently, cells were incubated with secondary antibody of Fluorescein (FITC)-conjugated AffiniPure Goat Anti-Rabbit IgG, Goat Anti-Mouse IgG, IgM (1:200, Jackson Immunoresearch Laboratories, West Baltimore Pike, Pa., USA) for a minimum of 2 hours, followed by washing in PBS. […]

[1] = day 6 after the treatments, mean±S.D.

In the case of `CC1=C(/C=C/C(C)=C/C=C/C(C)=C/C(=O)O)C(C)(C)CCC1` [RA, retinoic acid], the “percentage of pES cell-derived neural lineages expressing nestin” value (D2 after replating, 12-day induction, 1 μM RA, 200 ng/ml SHH, 100 ng/ml FGF, mean±S.D.) is reported as 86.2 ± 7.9^ab %, the “percentage of pES cell-derived neural lineages expressing A2B5” value (D2 after replating, mean±S.D.) is reported as 83.7 ± 12.6% and the “percentage of pES cell-derived neural lineages expressing ChAT” value (D2 after replating, mean±S.D.) is reported as 87.1 ± 5.6^ab %. The “percentage of pES cell-derived neural lineages expressing GFAP” value (D2 after replating, mean±S.D.) was 9.8 ± 3.8%, the “percentage of pES cell-derived neural lineages expressing NFL” value (D2 after replating, mean±S.D.) was 93.9 ± 3.9^a % and the “percentage of pES cell-derived neural lineages expressing TH” value (D2 after replating, mean±S.D.) was 7.8 ± 2.5%. For the same molecule, the “percentage of pES cell-derived neural lineages expressing A2B5” value (D4 after replating, mean±S.D.) was 86.6 ± 3.3%, the “percentage of pES cell-derived neural lineages expressing ChAT” value (D4 after replating, mean±S.D.) was 85.8 ± 3.2^bc % and the “percentage of pES cell-derived neural lineages expressing GFAP” value (D4 after replating, mean±S.D.) was 7.6 ± 4.2%. The “percentage of pES cell-derived neural lineages expressing NFL” value (D4 after replating, mean±S.D.) was 90.3 ± 4.8^ab %, the “percentage of pES cell-derived neural lineages expressing TH” value (D4 after replating, mean±S.D.) was 8.0 ± 4.9% and the “percentage of pES cell-derived neural lineages expressing nestin” value (D4 after replating, mean±S.D.) was 90.5 ± 4.7^a %. The “percentage of pES cell-derived neural lineages expressing A2B5” value (D6 after replating, mean±S.D.) was 87.6 ± 7.4% and 87.6 ± 7.4^a %, the “percentage of pES cell-derived neural lineages expressing ChAT” value (D6 after replating, mean±S.D.) was 91.8 ± 8.3^a % and the “percentage of pES cell-derived neural lineages expressing GFAP” value (D6 after replating, mean±S.D.) was 7.7±3.6% and 7.7 ± 3.6^d %. For the same molecule, the “percentage of pES cell-derived neural lineages expressing NFL” value (D6 after replating, mean±S.D.) was 91.8 ± 6.0^a %, the “percentage of pES cell-derived neural lineages expressing TH” value (D6 after replating, mean±S.D.) was 8.7±1.7% and 8.7 ± 1.7^b % and the “percentage of pES cell-derived neural lineages expressing A2B5” value (D8 after replating, mean±S.D.) was 86.9 ± 9.3%. For the same molecule, the “percentage of pES cell-derived neural lineages expressing ChAT” value (D8 after replating, mean±S.D.) was 86.9 ± 4.4^ab %, the “percentage of pES cell-derived neural lineages expressing GFAP” value (D8 after replating, mean±S.D.) was 7.3 ± 1.5% and the “percentage of pES cell-derived neural lineages expressing NFL” value (D8 after replating, mean±S.D.) was 85.8 ± 4.2^b %. The “percentage of pES cell-derived neural lineages expressing TH” value (D8 after replating, mean±S.D.) was 8.5 ± 2.7%, the “percentage of pES cell-derived neural lineages expressing nestin” value (D8 after replating, mean±S.D.) was 81.2 ± 8.0^bc % and the “percentage of pES cell-derived neural lineages expressing A2B5” value (D10 after replating, mean±S.D.) was 86.3 ± 1.9%. The “percentage of pES cell-derived neural lineages expressing ChAT” value (D10 after replating, mean±S.D.) was 89.9 ± 7.2^ab %, the “percentage of pES cell-derived neural lineages expressing GFAP” value (D10 after replating, mean±S.D.) was 7.7 ± 4.5% and the “percentage of pES cell-derived neural lineages expressing NFL” value (D10 after replating, mean±S.D.) was 84.4 ± 7.7^b %. For the same molecule, the “percentage of pES cell-derived neural lineages expressing TH” value (D10 after replating, mean±S.D.) was 8.5 ± 4.2%, the “percentage of pES cell-derived neural lineages expressing nestin” value (D10 after replating, mean±S.D.) was 82.4 ± 11.4^bc % and the “percentage of pES cell-derived neural lineages expressing A2B5” value (D12 after replating, mean±S.D.) was 84.8 ± 5.2%. The “percentage of pES cell-derived neural lineages expressing ChAT” value (D12 after replating, mean±S.D.) was 80.3 ± 6.0^c %, the “percentage of pES cell-derived neural lineages expressing GFAP” value (D12 after replating, mean±S.D.) was 7.6 ± 2.3% and the “percentage of pES cell-derived neural lineages expressing NFL” value (D12 after replating, mean±S.D.) was 74.4 ± 12.3^c %. The “percentage of pES cell-derived neural lineages expressing TH” value (D12 after replating, mean±S.D.) was 8.4 ± 3.5%, the “percentage of pES cell-derived neural lineages expressing nestin” value (D12 after replating, mean±S.D.) was 77.9 ± 6.6^c % and the “percentage of pES cell-derived neural lineages expressing CNPase” value [1] was 89.8 ± 4.7^ab %. For the same molecule, the “percentage of pES cell-derived neural lineages expressing GABA” value [1] was 80.5±9.2% and 80.5 ± 9.2^a %, the “percentage of pES cell-derived neural lineages expressing MAP2” value [1] was 86.1 ± 3.2^a % and the “percentage of pES cell-derived neural lineages expressing O4” value [1] was 90.7 ± 5.9%. The “percentage of pES cell-derived neural lineages expressing S100” value [1] was 71.4 ± 12.5^a %, the “percentage of differentiated cells GFAP positive” value (during the 12-day post-treatment period (Table 3)) was “Less than 10%” and the “percentage of cells expressing TH” value (during the culture, day 2 to day 12 (text summary of Table 5)) was “below 10%”. The “ratio of cells expressing A2B5” value (during the following culture, day 2 to day 12 (text summary of Table 4)) was “above 80%”.
